Measured values as given in PubChem BioAssay (NCI).
Values joined by “and” are separate entries in the source; they are usually repeats but may differ in a detail not shown here. Identical values can stand only once.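 Grown in 96-well plates, cells were treated for 48 hours with each compound at five concentrations. Insufficient inhibition: endpoint recorded as highest concentration tested. GI50 is the concentration that inhibits growth by half. The concentration for full growth arrest is given as TGI.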

Tests used:
Assay in all cases: inhibition of tumour cell growth, NCI panel, 48 h
A549 NSCLC = tested on: A549 NSCLC
BT-549 breast = tested on: BT-549 breast
HCT-116 colon = tested on: HCT-116 colon
KM12 colon = tested on: KM12 colon
NCI-H460 lung = tested on: NCI-H460 lung
OVCAR-5 ovarian = tested on: OVCAR-5 ovarian
SK-MEL-28 melanoma = tested on: SK-MEL-28 melanoma
U251 CNS = tested on: U251 CNS
UACC-257 melanoma = tested on: UACC-257 melanoma
UACC-62 melanoma = tested on: UACC-62 melanoma

Q: Which results are given for `CCOC(=O)c1cn(C)c(=S)n2c1nc1ccccc12`?
A: TGI (A549 NSCLC): > 100 µM; TGI (BT-549 breast): > 100 µM; TGI (HCT-116 colon): > 100 µM; TGI (KM12 colon): > 100 µM; TGI (NCI-H460 lung): > 100 µM; TGI (OVCAR-5 ovarian): > 100 µM; TGI (SK-MEL-28 melanoma): > 100 µM; TGI (U251 CNS): > 100 µM; TGI (UACC-257 melanoma): > 100 µM; TGI (UACC-62 melanoma): > 100 µM

Q: `CC(C)(C)C1CC[C@H](O)[C@H]([C@H](O)CC2CC(=O)N(c3ccccc3)C(=O)C2)C1` (some centres not stated) was tested. Which TGI (A549 NSCLC) did it give?
A: > 100 µM

Q: What about the TGI (BT-549 breast) of the same compound?
A: > 100 µM

Q: And the TGI (HCT-116 colon)?
A: > 100 µM

Q: And the TGI (KM12 colon)?
A: > 100 µM

Q: And the TGI (NCI-H460 lung)?
A: > 100 µM

Q: And the TGI (OVCAR-5 ovarian)?
A: > 100 µM

Q: And the TGI (SK-MEL-28 melanoma)?
A: > 100 µM

Q: What about the TGI (U251 CNS) of the same compound?
A: > 100 µM

Q: And the TGI (UACC-257 melanoma)?
A: > 100 µM

Q: And the TGI (UACC-62 melanoma)?
A: > 100 µM

Q: For `CCN(CC)CCN(C(=O)C(C)(C)C)c1ccccc1N`, which TGI (A549 NSCLC) is on record?
A: > 100 µM

Q: And the TGI (BT-549 breast)?
A: > 100 µM

Q: And the TGI (HCT-116 colon)?
A: > 100 µM

Q: And the TGI (KM12 colon)?
A: > 100 µM

Q: What about the TGI (NCI-H460 lung) of the same compound?
A: > 100 µM

Q: And the TGI (OVCAR-5 ovarian)?
A: > 100 µM

Q: And the TGI (SK-MEL-28 melanoma)?
A: > 100 µM

Q: And the TGI (U251 CNS)?
A: > 100 µM

Q: What about the TGI (UACC-257 melanoma) of the same compound?
A: > 100 µM

Q: What about the TGI (UACC-62 melanoma) of the same compound?
A: > 100 µM

Q: With `CCOC(=O)C1CCCCN1CCc1c[nH]c2ccccc12` (configuration not stated) as the compound, how does the TGI (A549 NSCLC) read?
A: > 100 µM

Q: And the TGI (BT-549 breast)?
A: > 100 µM

Q: What about the TGI (HCT-116 colon) of the same compound?
A: > 100 µM

Q: And the TGI (KM12 colon)?
A: > 100 µM

Q: And the TGI (NCI-H460 lung)?
A: > 100 µM

Q: And the TGI (OVCAR-5 ovarian)?
A: > 100 µM

Q: What about the TGI (SK-MEL-28 melanoma) of the same compound?
A: > 100 µM

Q: What about the TGI (U251 CNS) of the same compound?
A: > 100 µM

Q: And the TGI (UACC-257 melanoma)?
A: > 100 µM

Q: And the TGI (UACC-62 melanoma)?
A: > 100 µM

Q: How did the TGI (A549 NSCLC) turn out when `Cc1ccc(S(=O)(=O)n2cc(C#N)c(C#N)c2)cc1` was run?
A: 78.9 µM

Q: And the TGI (BT-549 breast)?
A: 45.2 µM

Q: What about the TGI (HCT-116 colon) of the same compound?
A: > 100 µM

Q: And the TGI (KM12 colon)?
A: > 100 µM

Q: What about the TGI (NCI-H460 lung) of the same compound?
A: > 100 µM

Q: What about the TGI (OVCAR-5 ovarian) of the same compound?
A: 81.2 µM

Q: And the TGI (SK-MEL-28 melanoma)?
A: 30.8 µM

Q: And the TGI (U251 CNS)?
A: > 100 µM

Q: And the TGI (UACC-257 melanoma)?
A: > 100 µM

Q: What about the TGI (UACC-62 melanoma) of the same compound?
A: 33.7 µM

Q: `CCOC(=O)C1(C(F)(F)F)N=C(CC)OC(N2CCOCC2)=N1` (configuration not stated) was tested. Which TGI (A549 NSCLC) did it give?
A: > 100 µM

Q: What about the TGI (BT-549 breast) of the same compound?
A: > 100 µM

Q: And the TGI (HCT-116 colon)?
A: > 100 µM

Q: What about the TGI (KM12 colon) of the same compound?
A: > 100 µM

Q: What about the TGI (NCI-H460 lung) of the same compound?
A: > 100 µM

Q: What about the TGI (OVCAR-5 ovarian) of the same compound?
A: > 100 µM

Q: What about the TGI (SK-MEL-28 melanoma) of the same compound?
A: > 100 µM

Q: And the TGI (U251 CNS)?
A: > 100 µM

Q: And the TGI (UACC-257 melanoma)?
A: > 100 µM

Q: What about the TGI (UACC-62 melanoma) of the same compound?
A: > 100 µM

Q: Which results are given for `CO[C@H]1C[C@H](O[C@H]2CC[C@]3(C=O)[C@H]4CC[C@]5(C)[C@@H](C6=CC(=O)OC6)CC[C@]5(O)[C@@H]4CC[C@]3(O)C2)O[C@H](C)[C@H]1O`?
A: TGI (A549 NSCLC): 0.198 µM; TGI (BT-549 breast): 0.818 µM; TGI (HCT-116 colon): 0.737 µM; TGI (KM12 colon): 1.93 µM; TGI (NCI-H460 lung): 0.176 µM; TGI (OVCAR-5 ovarian): 1.35 µM; TGI (SK-MEL-28 melanoma): 5.37 µM; TGI (U251 CNS): 2.63 µM; TGI (UACC-257 melanoma): 1.43 µM; TGI (UACC-62 melanoma): 1.27 µM

Q: `C/C(=N\Nc1nc2ccccc2[nH]1)c1cc2ccccc2cn1` was tested. Which TGI (A549 NSCLC) did it give?
A: > 100 µM

Q: What about the TGI (BT-549 breast) of the same compound?
A: 21.2 µM

Q: What about the TGI (HCT-116 colon) of the same compound?
A: 1.04 µM

Q: And the TGI (KM12 colon)?
A: 1.88 µM

Q: What about the TGI (NCI-H460 lung) of the same compound?
A: 1.45 µM

Q: And the TGI (OVCAR-5 ovarian)?
A: 2.5 µM

Q: And the TGI (SK-MEL-28 melanoma)?
A: 0.429 µM

Q: What about the TGI (U251 CNS) of the same compound?
A: 0.863 µM

Q: What about the TGI (UACC-257 melanoma) of the same compound?
A: 5.67 µM

Q: What about the TGI (UACC-62 melanoma) of the same compound?
A: 1.09 µM

Q: Which results are given for `N#Cc1nc(C#N)n(C(=O)c2ccccc2)c1NC(=O)c1ccccc1`?
A: TGI (A549 NSCLC): > 100 µM; TGI (BT-549 breast): > 100 µM; TGI (HCT-116 colon): > 100 µM; TGI (KM12 colon): > 100 µM; TGI (NCI-H460 lung): > 100 µM; TGI (OVCAR-5 ovarian): > 100 µM; TGI (SK-MEL-28 melanoma): > 100 µM; TGI (U251 CNS): > 100 µM; TGI (UACC-257 melanoma): > 100 µM; TGI (UACC-62 melanoma): > 100 µM

Q: `CN(C)C(=S)Oc1ccc2ccc(=O)oc2c1` was tested. Which TGI (A549 NSCLC) did it give?
A: > 100 µM

Q: And the TGI (BT-549 breast)?
A: > 100 µM

Q: And the TGI (HCT-116 colon)?
A: > 100 µM

Q: And the TGI (KM12 colon)?
A: > 100 µM

Q: And the TGI (NCI-H460 lung)?
A: > 100 µM

Q: And the TGI (OVCAR-5 ovarian)?
A: > 100 µM

Q: And the TGI (SK-MEL-28 melanoma)?
A: > 100 µM

Q: What about the TGI (U251 CNS) of the same compound?
A: > 100 µM

Q: What about the TGI (UACC-257 melanoma) of the same compound?
A: > 100 µM

Q: What about the TGI (UACC-62 melanoma) of the same compound?
A: > 100 µM

Q: Which results are given for `N/C(=N\Nc1ccc(S(N)(=O)=O)cc1)c1cnccn1`?
A: TGI (A549 NSCLC): > 100 µM; TGI (BT-549 breast): > 100 µM; TGI (HCT-116 colon): > 100 µM; TGI (KM12 colon): > 100 µM; TGI (NCI-H460 lung): > 100 µM; TGI (OVCAR-5 ovarian): > 100 µM; TGI (SK-MEL-28 melanoma): > 100 µM; TGI (U251 CNS): > 100 µM; TGI (UACC-257 melanoma): > 100 µM; TGI (UACC-62 melanoma): > 100 µM

Q: What does the source list for `CCOP(=O)(OCC)C(C)(CC)NC(=O)C(C(F)(F)F)C(F)(F)F` (configuration not stated)?
A: TGI (A549 NSCLC): > 100 µM; GI50 (BT-549 breast): 19.3 µM and 3.87 µM; TGI (BT-549 breast): 99.7 µM and > 100 µM; TGI (HCT-116 colon): > 100 µM; TGI (KM12 colon): > 100 µM; TGI (NCI-H460 lung): > 100 µM; TGI (OVCAR-5 ovarian): > 100 µM; TGI (SK-MEL-28 melanoma): > 100 µM; TGI (U251 CNS): > 100 µM; TGI (UACC-257 melanoma): > 100 µM; GI50 (UACC-62 melanoma): > 100 µM; TGI (UACC-62 melanoma): > 100 µM

Q: Which results are given for `COC(=O)C1=C(O)C(C(=O)OC)[C@]2(O)[C@H](C(=O)OC)[C@H]1C[C@@H](c1ccc([N+](=O)[O-])cc1)[C@H]2C(=O)OC` (some centres not stated)?
A: TGI (A549 NSCLC): 68.1 µM; TGI (BT-549 breast): 39.7 µM; TGI (HCT-116 colon): 32.3 µM; TGI (KM12 colon): > 100 µM; TGI (NCI-H460 lung): > 100 µM; TGI (OVCAR-5 ovarian): 65.9 µM; TGI (SK-MEL-28 melanoma): 50.9 µM; TGI (U251 CNS): 28.6 µM; TGI (UACC-257 melanoma): > 100 µM; TGI (UACC-62 melanoma): 29.1 µM

Q: Which TGI (A549 NSCLC) does the source give for `NCCC1CN(C(=O)OCc2ccccc2)c2ccccc21` (configuration not stated) here?
A: > 53.6 µM

Q: And the TGI (BT-549 breast)?
A: 40.4 µM

Q: What about the TGI (HCT-116 colon) of the same compound?
A: 15.6 µM

Q: What about the TGI (KM12 colon) of the same compound?
A: 48.2 µM

Q: What about the TGI (NCI-H460 lung) of the same compound?
A: 43.4 µM

Q: What about the TGI (OVCAR-5 ovarian) of the same compound?
A: 45.4 µM

Q: And the TGI (SK-MEL-28 melanoma)?
A: 36 µM

Q: What about the TGI (U251 CNS) of the same compound?
A: 32.4 µM

Q: And the TGI (UACC-257 melanoma)?
A: 37.8 µM

Q: What about the TGI (UACC-62 melanoma) of the same compound?
A: 33.2 µM
